From patent publication US10829501B2 (BRISTOL-MYERS SQUIBB COMPANY, priority 2016, dated 2020)
Where a name gives a salt, the structure may show the parent alone. Read-outs that look alike come from different tables or passages of the source.

Target: ROCK2 (Homo sapiens, UniProt O75116)
Test: ROCK2 kinase inhibition assay (LABCHIP 3000 Reader, FITC peptide substrate);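 note: rho kinase reaction read by separating phosphorylated from unphosphorylated peptide on chip, with inhibition of kinase activity computed per concentration across a dose-response series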
[1] = read-out: ROCK2 Activity (ROCK2 IC50), 5 μM ATP, 1.5 μM peptide substrate, pH 7.5

ROCK2, sequence (O75116 whole entry, species assumed): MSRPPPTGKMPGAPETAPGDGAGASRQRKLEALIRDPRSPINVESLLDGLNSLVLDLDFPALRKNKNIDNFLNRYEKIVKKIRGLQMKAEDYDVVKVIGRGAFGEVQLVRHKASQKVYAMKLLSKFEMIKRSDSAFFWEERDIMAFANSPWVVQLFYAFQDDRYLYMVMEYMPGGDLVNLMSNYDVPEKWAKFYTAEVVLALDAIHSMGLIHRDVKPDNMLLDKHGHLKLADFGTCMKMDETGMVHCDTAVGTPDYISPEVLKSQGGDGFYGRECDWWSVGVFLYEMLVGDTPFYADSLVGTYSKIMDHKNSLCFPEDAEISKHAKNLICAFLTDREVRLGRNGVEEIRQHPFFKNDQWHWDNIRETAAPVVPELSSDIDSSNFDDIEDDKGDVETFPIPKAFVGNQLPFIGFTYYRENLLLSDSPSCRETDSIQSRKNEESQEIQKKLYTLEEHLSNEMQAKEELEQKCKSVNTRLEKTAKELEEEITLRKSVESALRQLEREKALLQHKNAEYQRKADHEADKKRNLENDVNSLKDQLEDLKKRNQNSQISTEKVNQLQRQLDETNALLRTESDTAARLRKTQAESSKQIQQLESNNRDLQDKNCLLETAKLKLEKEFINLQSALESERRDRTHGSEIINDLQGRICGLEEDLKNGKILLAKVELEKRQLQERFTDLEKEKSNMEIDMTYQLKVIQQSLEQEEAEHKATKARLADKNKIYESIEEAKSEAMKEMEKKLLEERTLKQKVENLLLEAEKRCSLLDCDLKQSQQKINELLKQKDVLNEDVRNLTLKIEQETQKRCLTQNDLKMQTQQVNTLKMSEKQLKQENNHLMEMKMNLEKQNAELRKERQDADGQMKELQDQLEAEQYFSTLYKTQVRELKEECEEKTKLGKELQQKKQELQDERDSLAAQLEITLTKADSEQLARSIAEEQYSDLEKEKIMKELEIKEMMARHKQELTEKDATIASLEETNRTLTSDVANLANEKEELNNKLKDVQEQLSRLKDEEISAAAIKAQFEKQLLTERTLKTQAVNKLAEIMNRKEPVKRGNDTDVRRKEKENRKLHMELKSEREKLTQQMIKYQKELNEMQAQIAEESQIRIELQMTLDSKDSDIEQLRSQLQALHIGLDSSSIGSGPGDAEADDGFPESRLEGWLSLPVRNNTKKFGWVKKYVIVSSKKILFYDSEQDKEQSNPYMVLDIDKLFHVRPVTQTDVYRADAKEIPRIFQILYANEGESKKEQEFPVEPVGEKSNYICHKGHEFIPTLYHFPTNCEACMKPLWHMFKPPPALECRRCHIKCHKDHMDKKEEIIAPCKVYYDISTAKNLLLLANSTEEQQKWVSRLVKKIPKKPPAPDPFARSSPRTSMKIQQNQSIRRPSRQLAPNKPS

| Compound | IC50 | IC50 [1] |
| --- | --- | --- |
| [H][C@]1(Oc2ncccc2C(N)=O)C[C@@]2(C[C@H](NC(=O)c3nnn4c(Cl)c(OCc5ccccc5)ccc34)C2)C1 (stereo partly drawn) [Example 373, 6-(benzyloxy)-N-((aR)-6-((3-carbamoylpyridin-2-yl)oxy)spiro[3.3]heptan-2-yl)-7-chloro-[1,2,3]triazolo[1,5-a]pyridine-3-carboxamide] | 250 to 2500 nM |  |
| [H][C@]1(Oc2ncccc2C(N)=O)C[C@@]2(C[C@H](NC(=O)c3nnn4c(C5CC5)c(OCc5ccccc5)ccc34)C2)C1 (stereo partly drawn) [Example 374, 6-(benzyloxy)-N-((aR)-6-((3-carbamoylpyridin-2-yl)oxy)spiro[3.3]heptan-2-yl)-7-cyclopropyl-[1,2,3]triazolo[1,5-a]pyridine-3-carboxamide] | 50 to 250 nM |  |
| [H][C@]1(Oc2ncccc2C(N)=O)C[C@@]2(C[C@H](NC(=O)c3nnn4cc(OCC(C)(C)O)ccc34)C2)C1 (stereo partly drawn) [Example 375, N-((aR)-6-((3-carbamoylpyridin-2-yl)oxy)spiro[3.3]heptan-2-yl)-6-(2-hydroxy-2-methylpropoxy)-[1,2,3]triazolo[1,5-a]pyridine-3-carboxamide] | 50 to 250 nM |  |
| [H][C@]1(Oc2ncccc2C(N)=O)C[C@@]2(C[C@H](NC(=O)c3cc(C4CC4)n4c(Cl)c(OCc5ccccc5)ccc34)C2)C1 (stereo partly drawn) [Example 376, 6-(benzyloxy)-N-((aR)-6-((3-carbamoylpyridin-2-yl)oxy)spiro[3.3]heptan-2-yl)-5-chloro-3-cyclopropylindolizine-1-carboxamide] | 5 to 50 nM |  |
| [H][C@]1(Oc2ncccc2C(N)=O)C[C@@]2(C[C@H](NC(=O)c3cnn(-c4ccc(Br)cc4)c3C)C2)C1 (stereo partly drawn) [Example 377] | 5 to 50 nM |  |
| [H][C@]1(Oc2ncccc2C(N)=O)C[C@@]2(C[C@H](NC(=O)c3cnn(-c4ccc(N5CCOCC5)cc4)c3C)C2)C1 (stereo partly drawn) [Example 378] | 50 to 250 nM |  |
| [H][C@]1(Oc2ncccc2C(N)=O)C[C@@]2(C[C@H](NC(=O)c3cnn(-c4ccccc4)c3C)C2)C1 (stereo partly drawn) [Example 379] | 50 to 250 nM |  |
| COc1ccc2c(c1)CCc1c(C(=O)NC3CC4(C3)CC(Oc3ncccc3C(N)=O)C4)nn(C)c1-2 [Example 380, N-((aR)-6-((3-carbamoylpyridin-2-yl)oxy)spiro[3.3]heptan-2-yl)-7-methoxy-1-methyl-4,5-dihydro-1H-benzo[g]indazole-3-carboxamide] |  | 5 to 50 nM |
| COc1ccc2c(c1)CCc1c-2nn(C)c1C(=O)NC1CC2(C1)CC(Oc1ncccc1C(N)=O)C2 [Example 381, N-((aR)-6-((3-carbamoylpyridin-2-yl)oxy)spiro[3.3]heptan-2-yl)-7-methoxy-2-methyl-4,5-dihydro-2H-benzo[g]indazole-3-carboxamide] |  | 250 to 2500 nM |
| Cc1nn(Cc2ccc(F)cc2)cc1C(=O)NC1CC2(C1)CC(Oc1ncccc1C(N)=O)C2 [Example 382, N-[(aR)2-[(6-{1-[(4-fluorophenyl)methyl]-3-methyl-1H-pyrazole-4-amido}spiro[3.3]heptan-2-yl)oxy]pyridine-3-carboxamide 1 trifluoroacetic acid salt] |  | 5 to 50 nM |
| Cc1c(C(=O)N[C@H]2CC3(C2)C[C@H](Oc2ncccc2C(N)=O)C3)cnn1Cc1ccc(F)cc1 (stereo partly drawn) [Example 383, N-[(aR)2-[(6-{1-[(4-fluorophenyl)methyl]-5-methyl-1H-pyrazole-4-amido}spiro[3.3]heptan-2-yl)oxy]pyridine-3-carboxamide 1 trifluoroacetic acid salt] |  | 5 to 50 nM |
| Cc1c(C(=O)NC2CC3(C2)CC(Oc2ncccc2C(N)=O)C3)cnn1-c1ccc(Cl)cc1 [Example 384, N-[(aR)2-({6-[1-(4-chlorophenyl)-5-methyl-1H-pyrazole-4-amido]spiro[3.3]heptan-2-yl}oxy)pyridine-3-carboxamid 1 trifluoroacetic acid salt] |  | 5 to 50 nM |
| Cc1c(C(=O)NC2CC3(C2)CC(Oc2ncccc2C(N)=O)C3)cnn1-c1ccc(C#N)cc1 [Example 385, N-[(aR)2-({6-[1-(4-cyanophenyl)-5-methyl-1H-pyrazole-4-amido]spiro[3.3]heplan-2-yl}oxy)pyridine-3-carboxamide1 trifluoroacetic acid salt] |  | 5 to 50 nM |
| Cc1c(C(=O)NC2CC3(C2)CC(Oc2ncccc2C(N)=O)C3)cnn1-c1ccc(OC(F)(F)F)cc1 [Example 386, N-[(aR)2-[(6-{5-methyl-1-[4-(trifluoromethoxy)phenyl]-1H-pyrazole-4-amido}spiro[3.3]heptan-2-yl)oxy]pyridine-3-carboxamide 1 trifluoroacetic acid salt] |  | 5 to 50 nM |
| Cc1c(C(=O)NC2CC3(C2)CC(Oc2ncccc2C(N)=O)C3)cnn1-c1ccc(S(C)(=O)=O)cc1 [Example 387, N-[(aR)2-({6-[1-(4-methanesulfonylphenyl)-5-methyl-1H-pyrazole-4-amido]spiro[3.3]heptan-2-yl}oxy)pyridine-3-carboxamide 1 trifluoroacetic acid salt] |  | 5 to 50 nM |
| Cc1c(C(=O)N[C@H]2CC3(C2)C[C@H](Oc2ncccc2C(N)=O)C3)cnn1-c1ccc(C#N)cc1F (stereo partly drawn) [Example 388, N-[(aR)2-({6-[1-(4-cyano-2-fluorophenyl)-5-methyl-1H-pyrazole-4-amido]spiro[3.3]heptan-2-yl}oxy)pyridine-3-carboxamide 1 trifluoroacetic acid salt] |  | 50 to 250 nM |
| NC(=O)c1cccnc1OC1CC2(CC(NC(=O)c3cn(-c4ccccc4)nn3)C2)C1 [Example 389, N-[(aR)2-({6-(1-phenyl-1H-1,2,3-triazole)-4-carboxamido]spiro[3.3]heptan-2-yl}oxy)nicotinamide] | 50 to 250 nM |  |
| NC(=O)c1cccnc1OC1CC2(CC(NC(=O)c3c[nH]c(-c4ccccc4)n3)C2)C1 [Example 390, N-[(aR)2-({6-(2-phenyl-1H-imidazole)-4-carboxamido]spiro[3.3]heptan-2-yl}oxy)nicotinamide] | 250 to 2500 nM |  |

| Compound | IC50 | IC50 [1] |
| --- | --- | --- |
| Cc1c(C(=O)NC2CC3(C2)CC(Oc2ncccc2C(N)=O)C3)cnn1-c1ccc(C#N)c(F)c1 (stereo not drawn) [Example 391] | 50 to 250 nM |  |
| Cc1nc(C(=O)NC2CC3(C2)CC(Oc2ncccc2C(N)=O)C3)c(C)n1-c1ccccc1 (stereo not drawn) [Example 392] | 50 to 250 nM |  |
| NC(=O)c1cccnc1OC1CC2(CC(NC(=O)c3cnn(-c4cccc(Cl)c4F)c3)C2)C1 (stereo not drawn) [Example 393] | 5 to 50 nM |  |
| NC(=O)c1cccnc1OC1CC2(CC(NC(=O)c3cnn(-c4cccc(Cl)c4)c3)C2)C1 (stereo not drawn) [Example 394] | 5 to 50 nM |  |
| COc1cccc(-n2cc(C(=O)NC3CC4(C3)CC(Oc3ncccc3C(N)=O)C4)cn2)c1 (stereo not drawn) [Example 395] | 5 to 50 nM |  |
| Cn1nc(C(=O)NC2CC3(C2)CC(Oc2ncccc2C(N)=O)C3)cc1-c1ccccc1 (stereo not drawn) [Example 396] | 5 to 50 nM |  |
| NC(=O)c1cccnc1OC1CC2(CC(NC(=O)c3cnn(-c4ccccc4Cl)c3)C2)C1 (stereo not drawn) [Example 397] | 5 to 50 nM |  |
| COc1ccccc1-n1cc(C(=O)NC2CC3(C2)CC(Oc2ncccc2C(N)=O)C3)cn1 (stereo not drawn) [Example 398] | 5 to 50 nM |  |
| Cc1c(C(=O)NC2CC3(C2)CC(Oc2ncccc2C(N)=O)C3)cnn1-c1cccc(C#N)c1 (stereo not drawn) [Example 399] | 50 to 250 nM |  |
| COc1ccc(-n2ncc(C(=O)N[C@H]3CC4(C3)C[C@H](Oc3ncccc3C(N)=O)C4)c2C)cn1 (stereo partly drawn) [Example 400] |  | 5 to 50 nM |
| CC(C)(C#N)n1nc(C(=O)NC2CC3(C2)CC(Oc2ncccc2C(N)=O)C3)c2ccc(F)cc21 [Example 401, N-((aR)-6-((3-carbamoylpyridin-2-yl)oxy)spiro[3.3]heptan-2-yl)-1-(2-cyanopropan-2-yl)-6-fluoro-1H-indazole-3-carboxamide, TFA] |  | < 5 nM |
| CC(C)(C(N)=O)n1nc(C(=O)NC2CC3(C2)CC(Oc2ncccc2C(N)=O)C3)c2ccc(F)cc21 [Example 402, 1-(1-amino-2-methyl-1-oxopropan-2-yl)-N-((aR)-6-((3-carbamoylpyridin-2-yl)oxy)spiro[3.3]heptan-2-yl)-6-fluoro-1H-indazole-3-carboxamide, TFA] |  | 5 to 50 nM |
| CC(C)(C#N)n1nc(C(=O)NC2CC3(C2)CC(Oc2ncccc2C(N)=O)C3)c2ccc(Br)cc21 [Example 403, 6-bromo-N-((aR)-6-((3-carbamoylpyridin-2-yl)oxy)spiro[3.3]heptan-2-yl)-1-(2-cyanopropan-2-yl)-1H-indazole-3-carboxamide, TFA] |  | 5 to 50 nM |
| Cn1cc(-c2ccc3c(C(=O)NC4CC5(C4)CC(Oc4ncccc4C(N)=O)C5)nn(CC4(O)CC(F)(F)C4)c3c2)cn1 [Example 404, N-((aR)-6-((3-carbamoylpyridin-2-yl)oxy)spiro[3.3]heptan-2-yl)-1-((3,3-difluoro-1-hydroxycyclobutyl)methyl)-6-(1-methyl-1H-pyrazol-4-yl)-1H-indazole-3-carboxamide, TFA] |  | 5 to 50 nM |
| Cn1cc(-c2ccc3c(C(=O)NC4CC5(C4)CC(Oc4ncccc4C(N)=O)C5)nn(CC4(O)CCC4)c3c2)cn1 [Example 405, N-((aR)-6-((3-carbamoylpyridin-2-yl)oxy)spiro[3.3]heptan-2-yl)-1-((1-hydroxycyclobutyl)methyl)-6-(1-methyl-1H-pyrazol-4-yl)-1H-indazole-3-carboxamide, TFA] |  | < 5 nM |
| [H][C@]1(Oc2ncccc2C(N)=O)C[C@@]2(C[C@H](NC(=O)c3nn(C(C)(C)C#N)c4cc(-c5cnn(C)c5)ccc34)C2)C1 (stereo partly drawn) [Example 406, N-((aR)-6-((3-carbamoylpyridin-2-yl)oxy)spiro[3.3]heptan-2-yl)-1-(2-cyanopropan-2-yl)-6-(1-methyl-1H-pyrazol-4-yl)-1H-indazole-3-carboxamide, TFA] | < 5 nM |  |
| [H][C@]1(Oc2ncccc2C(N)=O)C[C@@]2(C[C@H](NC(=O)c3nn(C(C)(C)C#N)c4cc(-c5cnn(C(F)F)c5)ccc34)C2)C1 (stereo partly drawn) [Example 407, N-((aR)-6-((3-carbamoylpyridin-2-yl)oxy)spiro[3.3]heptan-2-yl)-1-(2-cyanopropan-2-yl)-6-(1-(difluoromethyl)-1H-pyrazol-4-yl)-1H-indazole-3-carboxamide, TFA] | < 5 nM |  |
| [H][C@]1(Oc2ncccc2C(N)=O)C[C@@]2(C[C@H](NC(=O)c3nn(C(C)(C)C(N)=O)c4cc(-c5cnn(C)c5)ccc34)C2)C1 (stereo partly drawn) [Example 408, 1-(1-amino-2-methyl-1-oxopropan-2-yl)-N-((aR)-6-((3-carbamoylpyridin-2-yl)oxy)spiro[3.3]heptan-2-yl)-6-(1-methyl-1H-pyrazol-4-yl)-1H-indazole-3-carboxamide, TFA] | 5 to 50 nM |  |
